Laboratory results: PubChem BioAssay AID270 (DTP/NCI, 2004)
Where “and” joins values, the source holds several entries; their conditions need not be identical. Equal values may be shown once. Inconclusive results are not listed.

System: BDF1 mice, s.c. Lewis lung carcinoma, T/C %
Experiment: NCI In Vivo Anticancer Drug Screen. Data for tumor model Lewis Lung Carcinoma (subcutaneous) in B6D2F1 (BDF1) mice
Procedure: The antitumor activity of compounds was measured in mice bearing transplantable tumors. Survival or tumor size were measured and the results are expressed as the measurement made in the treated group (T) divided by the measurement made in the vehicle treated control group (C). The tumor model used in this assay is Lewis Lung Carcinoma (subcutaneous) in B6D2F1 (BDF1) mice

[1] = endpoint: median survival time, dose: 10.0 mg/kg/injection, schedule: Q01DX009 (ip), vehicle: Klucel (hydroxypropylcellulose) (HPC), higher = longer survival
[2] = endpoint: mean tumor weight, dose: 40.0 mg/kg/injection, schedule: Q01DX011 (sc), vehicle: steriod suspending solution, higher = larger tumour
[3] = endpoint: mean tumor weight, dose: 80.0 mg/kg/injection, schedule: Q01DX011 (sc), vehicle: steriod suspending solution, higher = larger tumour
[4] = endpoint: mean tumor weight, dose: 25.0 mg/kg/injection, schedule: Q01DX011 (ip), vehicle: saline, higher = larger tumour
[5] = endpoint: mean tumor weight, dose: 50.0 mg/kg/injection, schedule: Q01DX011 (ip), vehicle: saline, higher = larger tumour
[6] = endpoint: mean tumor weight, dose: 100.0 mg/kg/injection, schedule: Q01DX011 (ip), vehicle: saline, higher = larger tumour

O=[N+]([O-])c1cc([N+](=O)[O-])c(Br)cc1Cl
T/C (endpoint: median survival time, dose: 2.5 mg/kg/injection, schedule: Q01DX009 (ip), vehicle: Klucel (hydroxypropylcellulose) (HPC), higher = longer survival): 104 % of control
T/C (endpoint: median survival time, dose: 5.0 mg/kg/injection, schedule: Q01DX009 (ip), vehicle: Klucel (hydroxypropylcellulose) (HPC), higher = longer survival): 97 % of control
T/C [1]: 105 % of control

CC(C)(CC(=O)O)CC(=O)OCC(=O)[C@@]1(O)CC[C@H]2[C@@H]3CCC4=CC(=O)C=C[C@]4(C)[C@H]3[C@@H](O)C[C@@]21C
T/C [2]: 69 % of control
T/C [3]: 76 % of control
T/C (endpoint: mean tumor weight, dose: 160.0 mg/kg/injection, schedule: Q01DX011 (sc), vehicle: steriod suspending solution, higher = larger tumour): 60 % of control
T/C (endpoint: mean tumor weight, dose: 320.0 mg/kg/injection, schedule: Q01DX011 (sc), vehicle: steriod suspending solution, higher = larger tumour): 51 % of control and 57 % of control
T/C (endpoint: mean tumor weight, dose: 640.0 mg/kg/injection, schedule: Q01DX011 (sc), vehicle: steriod suspending solution, higher = larger tumour): 31 % of control

C[C@@H]1CC[C@@]2(NC1)O[C@H]1C[C@H]3[C@@H]4CC=C5C[C@@H](O)CC[C@]5(C)[C@H]4CC[C@]3(C)[C@H]1[C@@H]2C
T/C (endpoint: mean tumor weight, dose: 12.0 mg/kg/injection, schedule: Q01DX011 (sc), vehicle: steriod suspending solution, higher = larger tumour): 73 % of control
T/C (endpoint: mean tumor weight, dose: 16.6 mg/kg/injection, schedule: Q01DX011 (ip), vehicle: carboxymethylcellulose (CMC), higher = larger tumour): 56 % of control and 59 % of control and 70 % of control
T/C (endpoint: mean tumor weight, dose: 18.0 mg/kg/injection, schedule: Q01DX011 (sc), vehicle: steriod suspending solution, higher = larger tumour): 75 % of control
T/C [2]: 94 % of control
T/C (endpoint: mean tumor weight, dose: 50.0 mg/kg/injection, schedule: Q01DX011 (ip), vehicle: carboxymethylcellulose (CMC), higher = larger tumour): 97 % of control
T/C (endpoint: mean tumor weight, dose: 54.0 mg/kg/injection, schedule: Q01DX011 (sc), vehicle: steriod suspending solution, higher = larger tumour): 92 % of control
T/C [3]: 119 % of control
T/C (endpoint: mean tumor weight, dose: 100.0 mg/kg/injection, schedule: Q01DX011 (sc), vehicle: steriod suspending solution, higher = larger tumour): 83 % of control
T/C (endpoint: mean tumor weight, dose: 200.0 mg/kg/injection, schedule: Q01DX011 (sc), vehicle: steriod suspending solution, higher = larger tumour): 58 % of control
T/C (endpoint: mean tumor weight, dose: 400.0 mg/kg/injection, schedule: Q01DX011 (sc), vehicle: steriod suspending solution, higher = larger tumour): 104 % of control

Cc1nnc(NS(=O)(=O)c2ccc(N=Nc3nc4[nH]c(N)nc(=S)c4[nH]3)cc2)s1
T/C (endpoint: median survival time, dose: 25.0 mg/kg/injection, schedule: Q01DX009 (ip), vehicle: saline, higher = longer survival): 109 % of control
T/C (endpoint: median survival time, dose: 50.0 mg/kg/injection, schedule: Q01DX009 (ip), vehicle: saline, higher = longer survival): 106 % of control
T/C (endpoint: median survival time, dose: 100.0 mg/kg/injection, schedule: Q01DX009 (ip), vehicle: saline, higher = longer survival): 98 % of control
T/C (endpoint: median survival time, dose: 200.0 mg/kg/injection, schedule: Q01DX009 (ip), vehicle: saline, higher = longer survival): 98 % of control

C=CCNC(=O)NCC=C
T/C [4]: 96 % of control
T/C [5]: 28 % of control
T/C [6]: 16 % of control
T/C (endpoint: mean tumor weight, dose: 200.0 mg/kg/injection, schedule: Q01DX011 (ip), vehicle: saline, higher = larger tumour): 43 % of control

CCCCCCCCSC1=C(Cl)C(=O)C(OC)=C(OC)C1=O
T/C (endpoint: median survival time, dose: 12.5 mg/kg/injection, schedule: Q01DX009 (ip), vehicle: other, higher = longer survival): 92 % of control

C/C=C1\CNC2Cc3c([nH]c4ccccc34)C(=O)CC1C2C(=O)OC (stereo unspecified)
T/C [4]: 88 % of control
T/C [5]: 97 % of control
T/C [6]: 84 % of control

O=CNCCNC=O
T/C (endpoint: mean tumor weight, dose: 148.0 mg/kg/injection, schedule: Q01DX011 (ip), vehicle: saline, higher = larger tumour): 96 % of control
T/C (endpoint: mean tumor weight, dose: 333.0 mg/kg/injection, schedule: Q01DX011 (ip), vehicle: saline, higher = larger tumour): 98 % of control
T/C (endpoint: mean tumor weight, dose: 500.0 mg/kg/injection, schedule: Q01DX011 (ip), vehicle: saline, higher = larger tumour): 115 % of control

CS(=O)(=O)OCCCCOS(C)(=O)=O
T/C (endpoint: mean tumor weight, dose: 12.5 mg/kg/injection, schedule: Q01DX011 (ip), vehicle: carboxymethylcellulose (CMC), higher = larger tumour): 91 % of control and 104 % of control
T/C [1]: 94 % of control
T/C (endpoint: median survival time, dose: 10.0 mg/kg/injection, schedule: Q01DX009 (ip), vehicle: saline with Tween-80, higher = longer survival): 100 % of control
T/C (endpoint: median survival time, dose: 20.0 mg/kg/injection, schedule: Q01DX009 (ip), vehicle: saline with Tween-80, higher = longer survival): 93 % of control
T/C (endpoint: median survival time, dose: 40.0 mg/kg/injection, schedule: Q01DX009 (ip), vehicle: Klucel (hydroxypropylcellulose) (HPC), higher = longer survival): 92 % of control
T/C (endpoint: median tumor weight (est.), dose: 10.0 mg/kg/injection, schedule: Q01DX009 (ip), vehicle: saline with Tween-80, higher = larger tumour): 86 % of control
T/C (endpoint: median tumor weight (est.), dose: 20.0 mg/kg/injection, schedule: Q01DX009 (ip), vehicle: saline with Tween-80, higher = larger tumour): 80 % of control
T/C (endpoint: median tumor weight (est.), dose: 40.0 mg/kg/injection, schedule: Q01DX009 (ip), vehicle: saline with Tween-80, higher = larger tumour): 45 % of control
